Key:
EGFR (L858R T790M C797S) = molecular target: T1, EGFR (L858R T790M C797S) (Homo sapiens, UniProt P00533, C797S/L858R/T790M); assay: Biochemical EGFR inhibition assay (Caliper mobility shift), EGFR LRTMCS mutant; conditions: inhibitory activity against EGFR LRTMCS mutant; apparent IC50; read-out: Ext Enz LRTMCS
T1 construct: purchased SignalChem E10-122VG
Method in brief: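 Each enzyme was allowed to phosphorylate 10–20% of its peptide at 25° C. before EDTA (35 mM) quench. Separated substrate and product peaks were measured by mobility shift, giving apparent IC50 values.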

[1] = system: phosphorylation of EGFR (Tyr1068) in NCI-H1975 cell line that harbors the EGFR L858R T790M mutations; assay: NCI-H1975 pEGFR AlphaLISA assay; type: cell-based; conditions: Homo sapiens, NCI-H1975, inhibition of phosphorylation of mutant EGFR in NCI-H1975 cells; 4-5 hours incubation; read-out: Ext pEGFR H1975
Method in brief: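 Phospho-EGFR Tyr1068 AlphaLISA readout: lysates taken from compound-treated H1975 cells (L858R T790M EGFR) after a 4-5 h exposure at 37 °C. Cells had adhered overnight beforehand. IC50 derived by plotting % pEGFR inhibition against log compound concentration.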

T1 sequence (P00533 25-1210 T790M/C797S/L858R): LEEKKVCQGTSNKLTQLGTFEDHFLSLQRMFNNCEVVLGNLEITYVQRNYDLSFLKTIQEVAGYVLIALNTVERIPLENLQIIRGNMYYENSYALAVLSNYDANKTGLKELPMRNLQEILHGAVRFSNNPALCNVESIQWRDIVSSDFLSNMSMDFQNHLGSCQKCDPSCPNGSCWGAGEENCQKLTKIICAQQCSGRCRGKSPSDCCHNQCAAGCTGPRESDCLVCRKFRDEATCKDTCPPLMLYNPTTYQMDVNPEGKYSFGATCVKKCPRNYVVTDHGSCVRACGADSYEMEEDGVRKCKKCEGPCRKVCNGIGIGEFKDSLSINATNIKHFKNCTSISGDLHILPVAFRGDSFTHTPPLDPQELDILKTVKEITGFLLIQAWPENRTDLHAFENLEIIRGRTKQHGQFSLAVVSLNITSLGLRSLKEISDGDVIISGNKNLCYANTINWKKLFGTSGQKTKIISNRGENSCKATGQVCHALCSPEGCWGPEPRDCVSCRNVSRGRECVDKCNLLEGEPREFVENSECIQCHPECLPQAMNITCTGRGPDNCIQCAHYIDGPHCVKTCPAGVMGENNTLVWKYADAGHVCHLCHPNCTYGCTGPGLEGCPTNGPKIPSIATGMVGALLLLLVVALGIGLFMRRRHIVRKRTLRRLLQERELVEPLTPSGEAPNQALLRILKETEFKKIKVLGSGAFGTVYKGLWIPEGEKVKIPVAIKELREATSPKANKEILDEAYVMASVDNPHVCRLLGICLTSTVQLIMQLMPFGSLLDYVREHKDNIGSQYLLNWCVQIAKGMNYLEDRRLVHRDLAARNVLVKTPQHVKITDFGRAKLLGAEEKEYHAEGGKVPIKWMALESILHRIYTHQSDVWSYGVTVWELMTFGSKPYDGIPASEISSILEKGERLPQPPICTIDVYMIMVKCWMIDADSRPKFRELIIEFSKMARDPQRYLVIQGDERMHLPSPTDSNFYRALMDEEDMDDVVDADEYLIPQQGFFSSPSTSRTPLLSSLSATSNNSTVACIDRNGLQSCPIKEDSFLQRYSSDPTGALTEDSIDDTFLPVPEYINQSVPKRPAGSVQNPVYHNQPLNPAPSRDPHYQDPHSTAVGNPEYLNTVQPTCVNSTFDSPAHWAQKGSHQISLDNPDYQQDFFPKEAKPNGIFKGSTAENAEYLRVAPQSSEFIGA

What does the source list for CC(C)c1ccc(N2C[C@H](CS(C)(=O)=O)[C@H]2C)c2cnc(Nc3ccnc(N4CC[C@@](C)(O)C(F)(F)C4)n3)cc12 (single isomer, unassigned) [Compound 211, (R)-3,3-difluoro-1-(4-(5-isopropyl-8-((2R,3S)-2-methyl-3-(methylsulfonylmethyl)azetidin-1-yl)isoquinolin-3-ylamino)pyrimidin-2-yl)-4-methylpiperidin-4-ol or (S)-3,3-difluoro-1-(4-(5-isopropyl-8-((2R,3S)-2-methyl-3-(methylsulfonylmethyl)azetidin-1-yl)isoquinolin-3-ylamino)pyrimidin-2-yl)-4-methylpiperidin-4-ol]?
IC50 (EGFR (L858R T790M C797S)): 20.1 to 30 nM; IC50 [1]: ≤ 10 nM

Which results are given for CO[C@H]1CN(c2nccc(Nc3cc4c(C(C)C)ccc(N5C[C@H](CS(C)(=O)=O)[C@H]5C)c4cn3)n2)CC[C@H]1O (single isomer, unassigned) [Compound 97, (3S,4R)-1-[4-({8-[(2R,3S)-3-(methanesulfonylmethyl)-2-methylazetidin-1-yl]-5-(propan-2-yl)isoquinolin-3-yl}amino)pyrimidin-2-yl]-3-methoxypiperidin-4-ol or (3R,4S)-1-[4-({8-[(2R,3S)-3-(methanesulfonylmethyl)-2-methylazetidin-1-yl]-5-(propan-2-yl)isoquinolin-3-yl}amino)pyrimidin-2-yl]-3-methoxypiperidin-4-ol]?
IC50 (EGFR (L858R T790M C797S)): ≤ 15 nM; IC50 [1]: ≤ 10 nM

CO[C@@H]1CCN(c2nccc(Nc3cc4c(C(C)C)cnc(N5CC(CS(C)(=O)=O)C5)c4cn3)n2)C[C@@H]1F [Compound 72, N-{2-[(3S,4R)-3-fluoro-4-methoxypiperidin-1-yl]pyrimidin-4-yl}-8-[3-(methanesulfonylmethyl)azetidin-1-yl]-5-(propan-2-yl)-2,7-naphthyridin-3-amine] was tested. Which IC50 (EGFR (L858R T790M C797S)) did it give?
The IC50 was ≤ 15 nM.

And the IC50 [1]?
The IC50 was ≤ 10 nM.

Which IC50 (EGFR (L858R T790M C797S)) does the source give for CC(C)c1ccc(N2CC(CS(C)(=O)=O)C2)c2cnc(Nc3ccnc(N4C[C@@H](F)[C@@H](O)[C@](C)(F)C4)n3)cc12 (single isomer, unassigned) [Compound 156, (3R,4R,5R)-3,5-difluoro-1-[4-({8-[3-(methanesulfonylmethyl)azetidin-1-yl]-5-(propan-2-yl)isoquinolin-3-yl}amino)pyrimidin-2-yl]-3-methylpiperidin-4-ol or (3S,4S,5S)-3,5-difluoro-1-[4-({8-[3-(methanesulfonylmethyl)azetidin-1-yl]-5-(propan-2-yl)isoquinolin-3-yl}amino)pyrimidin-2-yl]-3-methylpiperidin-4-ol] here?
The IC50 was ≤ 15 nM.

What about the IC50 [1] of the same compound?
Its IC50 is ≤ 10 nM.

With CO[C@@H]1[C@H](O)CN(c2nccc(Nc3cc4c(C(C)C)cnc(N5C[C@H](CS(C)(=O)=O)[C@H]5C)c4cn3)n2)CC1(F)F (single isomer, unassigned) [Compound 235, (3R,4R)-5,5-difluoro-1-[4-({8-[(2R,3S)-3-(methanesulfonylmethyl)-2-methylazetidin-1-yl]-5-(propan-2-yl)-2,7-naphthyridin-3-yl}amino)pyrimidin-2-yl]-4-methoxypiperidin-3-ol or (3S,4S)-5,5-difluoro-1-[4-({8-[(2R,3S)-3-(methanesulfonylmethyl)-2-methylazetidin-1-yl]-5-(propan-2-yl)-2,7-naphthyridin-3-yl}amino)pyrimidin-2-yl]-4-methoxypiperidin-3-ol] as the compound, how does the IC50 (EGFR (L858R T790M C797S)) read?
The IC50 was ≤ 15 nM.

What about the IC50 [1] of the same compound?
The IC50 was ≤ 10 nM.

For CO[C@H]1CCN(c2nccc(Nc3cc4c(C(C)C)ccc(N5CC(CS(C)(=O)=O)C5)c4cn3)n2)C[C@H]1F [Compound 63, N-(2-((3R,4S)-3-fluoro-4-methoxypiperidin-1-yl)pyrimidin-4-yl)-5-isopropyl-8-(3-(methylsulfonylmethyl)azetidin-1-yl)isoquinolin-3-amine], which IC50 (EGFR (L858R T790M C797S)) is on record?
The IC50 was ≤ 15 nM.

And the IC50 [1]?
The IC50 was ≤ 10 nM.

Which IC50 (EGFR (L858R T790M C797S)) does the source give for CC(C)c1ccc(N2CC(CS(C)(=O)=O)C2)c2cnc(Nc3ccnc(N4CC5COC(C5)C4)n3)cc12 (racemic) [Compound 13, (rac)-8-[3-(methanesulfonylmethyl)azetidin-1-yl]-N-{2-[6-oxa-3-azabicyclo[3.2.1]octan-3-yl]pyrimidin-4-yl}-5-(propan-2-yl)isoquinolin-3-amine] here?
The IC50 was ≤ 15 nM.

And the IC50 [1]?
The IC50 was 30.1 to 50 nM.

CC(C)c1ccc(N2C[C@H](CS(C)(=O)=O)[C@H]2C)c2cnc(Nc3ccnc(N4CCC(N)C(F)(F)C4)n3)cc12 (single isomer, unassigned) [Compound 152, N-(2-((R)-4-amino-3,3-difluoropiperidin-1-yl)pyrimidin-4-yl)-5-isopropyl-8-((2R,3S)-2-methyl-3-(methylsulfonylmethyl)azetidin-1-yl(isoquinolin-3-amine or N-(2-((S)-4-amino-3,3-difluoropiperidin-1-yl)pyrimidin-4-yl)-5-isopropyl-8-((2R,3S)-2-methyl-3-((methylsulfonyl)methyl)azetidin-1-yl)isoquinolin-3-amine] was tested. Which IC50 (EGFR (L858R T790M C797S)) did it give?
Its IC50 is ≤ 15 nM.

What about the IC50 [1] of the same compound?
Its IC50 is ≤ 10 nM.

With CCS(=O)(=O)C[C@H]1CN(c2nnc(C(C)C)c3cc(Nc4ccnc(N5CC[C@H](OC)[C@H](F)C5)n4)ncc23)[C@@H]1C [Compound 207, N-{4-[(2R,3S)-3-[(ethanesulfonyl)methyl]-2-methylazetidin-1-yl]-1-(propan-2-yl)pyrido[3,4-d]pyridazin-7-yl}-2-[(3R,4S)-3-fluoro-4-methoxypiperidin-1-yl]pyrimidin-4-amine] as the compound, how does the IC50 (EGFR (L858R T790M C797S)) read?
Its IC50 is ≤ 15 nM.

What about the IC50 [1] of the same compound?
Its IC50 is 10.1 to 20 nM.

CC1(C)CN(c2nccc(Nc3cc4ccnc(N5CC(CS(C)(=O)=O)C5)c4cn3)n2)C[C@@H](F)[C@H]1O (single isomer, unassigned) [Compound 6, (4S,5R)-5-fluoro-1-[4-({8-[3-(methanesulfonylmethyl)azetidin-1-yl]-2,7-naphthyridin-3-yl}amino)pyrimidin-2-yl]-3,3-dimethylpiperidin-4-ol or (4R,5S)-5-fluoro-1-[4-({8-[3-(methanesulfonylmethyl)azetidin-1-yl]-2,7-naphthyridin-3-yl}amino)pyrimidin-2-yl]-3,3-dimethylpiperidin-4-ol] was tested. Which IC50 (EGFR (L858R T790M C797S)) did it give?
The IC50 was ≤ 15 nM.

And the IC50 [1]?
Its IC50 is 20.1 to 30 nM.

CC(C)c1ccc(N2CC(CS(C)(=O)=O)C2)c2cnc(Nc3ccnc(N4CC[C@@H](F)[C@@H](O)C4)n3)cc12 (single isomer, unassigned) [Compound 26, (3R,4S)-4-fluoro-1-[4-({8-[3-(methanesulfonylmethyl)azetidin-1-yl]-5-(propan-2-yl)isoquinolin-3-yl}amino)pyrimidin-2-yl]piperidin-3-ol or (3S,4R)-4-fluoro-1-[4-({8-[3-(methanesulfonylmethyl)azetidin-1-yl]-5-(propan-2-yl)isoquinolin-3-yl}amino)pyrimidin-2-yl]piperidin-3-ol] was tested. Which IC50 (EGFR (L858R T790M C797S)) did it give?
Its IC50 is ≤ 15 nM.

And the IC50 [1]?
The IC50 was ≤ 10 nM.

For COCCO[C@@H]1CCN(c2nccc(Nc3cc4c(C(C)C)ccc(N5CC(CS(C)(=O)=O)C5)c4cn3)n2)C[C@H]1O (racemic) [Compound 227, (3S,4S)-1-[4-[[5-isopropyl-8-[3-(methylsulfonylmethyl)azetidin-1-yl]-3-isoquinolyl]amino]pyrimidin-2-yl]-4-(2-methoxyethoxy)piperidin-3-ol or (3R,4R)-1-[4-[[5-isopropyl-8-[3-(methylsulfonylmethyl)azetidin-1-yl]-3-isoquinolyl]amino]pyrimidin-2-yl]-4-(2-methoxyethoxy)piperidin-3-ol], which IC50 (EGFR (L858R T790M C797S)) is on record?
The IC50 was 20.1 to 30 nM.

And the IC50 [1]?
Its IC50 is 30.1 to 50 nM.

CO[C@@H]1CCN(c2nccc(Nc3cc4c(C(C)C)ccc(N5CC([C@H](CN)S(C)(=O)=O)C5)c4cn3)n2)C[C@@H]1F (single isomer, unassigned) [Compound 193, 8-{3-[(1R)-2-amino-1-methanesulfonylethyl]azetidin-1-yl}-N-{2-[(3S,4R)-3-fluoro-4-methoxypiperidin-1-yl]pyrimidin-4-yl}-5-(propan-2-yl)isoquinolin-3-amine or 8-{3-[(1S)-2-amino-1-methanesulfonylethyl]azetidin-1-yl}-N-{2-[(3S,4R)-3-fluoro-4-methoxypiperidin-1-yl]pyrimidin-4-yl}-5-(propan-2-yl)isoquinolin-3-amine] was tested. Which IC50 (EGFR (L858R T790M C797S)) did it give?
Its IC50 is ≤ 15 nM.

And the IC50 [1]?
Its IC50 is ≤ 10 nM.

What does the source list for CCOc1cnc(N2CC(CS(C)(=O)=O)C2)c2cnc(Nc3ccnc(N4CC[C@@H](O)[C@@](C)(F)C4)n3)cc12 (single isomer, unassigned) [Compound 80]?
IC50 (EGFR (L858R T790M C797S)): ≤ 15 nM; IC50 [1]: 30.1 to 50 nM

For CO[C@H]1CCN(c2nccc(Nc3cc4c(C(C)C)ccc(N5C[C@H](CS(C)(=O)=O)[C@H]5C)c4cn3)n2)C[C@H]1OCCO (single isomer, unassigned) [Compound 295, 2-{[(3R,4S)-1-[4-({8-[(2R,3S)-3-(methanesulfonylmethyl)-2-methylazetidin-1-yl]-5-(propan-2-yl)isoquinolin-3-yl}amino)pyrimidin-2-yl]-4-methoxypiperidin-3-yl]oxy}ethan-1-ol or 2-{[(3S,4R)-1-[4-({8-[(2R,3S)-3-(methanesulfonylmethyl)-2-methylazetidin-1-yl]-5-(propan-2-yl)isoquinolin-3-yl}amino)pyrimidin-2-yl]-4-methoxypiperidin-3-yl]oxy}ethan-1-ol], which IC50 (EGFR (L858R T790M C797S)) is on record?
Its IC50 is ≤ 15 nM.

And the IC50 [1]?
Its IC50 is ≤ 10 nM.

Reference: patent US12172983B2, “EGFR inhibitors” (Blueprint Medicines Corporation, priority 2019, dated 2024)
